From patent publication US20230219963A1, “PYRROLO[2,3-D]PYRIMIDINE DERIVATIVES” (Pfizer Inc., priority 2020, published 2023) come the findings set out here.

What all share (format): cell-based
The test system of one assay is IL-27 induced pSTAT3. Briefly: IL-27-induced pSTAT3 in human whole blood (lymphocytes). Conditions: Lymphocyte, JAK1/JAK2, read-out: IL-27 induced pSTAT3, cellular potency IC50. As for the experimental part: (§1) Human whole blood was collected from healthy donors via vein puncture into Vacutainer collection tubes containing sodium heparin in accordance with Pfizer protocols (Protocol No. GOHW RDP-01) approved by the Shulman Institutional Review Board. Blood was warmed to 37° C. priorto use. Human whole blood was aliquoted (90 μL/well) in 96-well, deep-well, V-bottom plates and treated with compounds (5 μL/well) at different concentrations up to 60 μM (0.2% DMSO final) at 37° C. for 60 minutes. This was followed by a challenge with IFNα (5000 U/mL), IFNγ (100 ng/mL), IL-6 (50 ng/mL), IL-10 (30 ng/mL), IL-12 (30 ng/mL), IL-15 (30 ng/mL), IL-21 (50 ng/mL), IL-23 (25 ng/mL), IL-27 (1000 ng/mL), EPO (2 U/mL), TSLP (50 ng/mL) or PBS and incubated for 15 minutes. Anti-cell surface antibodies were added 15 minutes prior to cytokine stimulation; anti-CD3-BV421 (0.5 μL/well) to IL-6-treated and TSLP-treated samples and anti-CD14-BV421 (0.5 μL/well) to IFNγ-treated samples. Samples were treated with warm 1×Lyse/Fix buffer (700 μL/well) to terminate activation and further incubated at 37° C. for 20 minutes to lyse red blood cells. Plates were centrifuged at 300×g for 5 minutes, supernatant was aspirated, and cells were washed with 800 μL/well of staining buffer (D-PBS containing 0.1% FBS and 0.01% sodium azide). Washed cell pellets were resuspended in 350 μL/well of prechilled 90% methanol and incubated at 4° C. for 30 minutes. After the removal of 90% methanol, cells were washed once with staining buffer. All samples were finally suspended in 150 μL/well of the desired anti-phospho-STAT antibodies at 1:150 dilution in staining buffer; anti-pSTAT1-AF647 in IFNγ treated samples; anti-pSTAT1-AF488 and anti-pSTAT3-AF647 in IL-6-treated samples, anti-pSTAT3-AF647 in IFNα, IL-10, IL-21, IL-23 and IL-27 treated samples, anti-pSTAT4-AF647 in IL-12 treated samples, anti-pSTAT5-AF-647 in EPO, IL-15 and TSLP-treated samples. Human primary keratinocytes were cultured in DermaLife™ medium with supplement kit to expand cell population. Cell passages 2 to 5 were used in the assays. Cells were harvested at ˜80% confluence, suspended in warm DermaLife™ medium, aliquoted (90 μL/well) in 96-well, deep-well, V-bottom plates, and incubated at 37° C. for 30 minutes. Cells were then treated with compounds (0.0003 to 20 μM) for 60 minutes and followed by stimulation with IL-4 (2 ng/mL) or IL-13 (20 ng/mL) at 37° C. for 15 minutes. […]
(§2) After overnight incubation at 4° C., anti-pSTAT stained samples were transferred into 96-well polypropylene U-bottom plates and flow cytometric analysis was performed on a LSR Fortessa™ equipped with a HTS plate loader. […] Background fluorescence was defined using unstimulated cells and a gate was placed at the foot of the peak to include ˜0.5% gated population. […]

In a further assay the test system is IL-4 induced pSTAT6. As to the kind of experiment: IL-4-induced pSTAT6 in human keratinocytes. The following applies: Keratinocyte, JAK1/JAK2, read-out: IL-4 induced pSTAT6, cellular potency IC50. As for the experimental part:
(§3) Human whole blood was collected from healthy donors via vein puncture into Vacutainer collection tubes containing sodium heparin in accordance with Pfizer protocols (Protocol No. GOHW RDP-01) approved by the Shulman Institutional Review Board. Blood was warmed to 37° C. priorto use. Human whole blood was aliquoted (90 μL/well) in 96-well, deep-well, V-bottom plates and treated with compounds (5 μL/well) at different concentrations up to 60 μM (0.2% DMSO final) at 37° C. for 60 minutes. This was followed by a challenge with IFNα (5000 U/mL), IFNγ (100 ng/mL), IL-6 (50 ng/mL), IL-10 (30 ng/mL), IL-12 (30 ng/mL), IL-15 (30 ng/mL), IL-21 (50 ng/mL), IL-23 (25 ng/mL), IL-27 (1000 ng/mL), EPO (2 U/mL), TSLP (50 ng/mL) or PBS and incubated for 15 minutes. Anti-cell surface antibodies were added 15 minutes prior to cytokine stimulation; anti-CD3-BV421 (0.5 μL/well) to IL-6-treated and TSLP-treated samples and anti-CD14-BV421 (0.5 μL/well) to IFNγ-treated samples. Samples were treated with warm 1×Lyse/Fix buffer (700 μL/well) to terminate activation and further incubated at 37° C. for 20 minutes to lyse red blood cells. Plates were centrifuged at 300×g for 5 minutes, supernatant was aspirated, and cells were washed with 800 μL/well of staining buffer (D-PBS containing 0.1% FBS and 0.01% sodium azide). Washed cell pellets were resuspended in 350 μL/well of prechilled 90% methanol and incubated at 4° C. for 30 minutes. After the removal of 90% methanol, cells were washed once with staining buffer. […]
as §2

The test system of the next assay is IL-10 induced pSTAT3. As to the kind of experiment: IL-10-induced pSTAT3 in human whole blood (lymphocytes). The following applies: Lymphocyte, JAK1/TYK2, read-out: IL-10 induced pSTAT3, cellular potency IC50. As for the experimental part: as §1, §2
For another assay, the system named is IL-6 induced pSTATI. As to the kind of experiment: IL-6-induced pSTAT1 in human whole blood (CD3+ cells). Conditions: JAK1/JAK2, read-out: IL-6 induced pSTATI, cellular potency IC50. As for the experimental part: as §1, §2
The next assay concerns IL-23 induced pSTAT3. As to the kind of experiment: IL-23-induced pSTAT3 in human whole blood (lymphocytes). Conditions: Lymphocyte, JAK2/TYK2, read-out: IL-23 induced pSTAT3, cellular potency IC50. As for the experimental part:
as §1, §2

A further assay concerns IL-22 induced pSTAT3. As to the kind of experiment: IL-22-induced pSTAT3 in human keratinocytes. Conditions: Keratinocyte, JAK1/TYK2, read-out: IL-22 induced pSTAT3, cellular potency IC50.
A further assay deals with IL-31 induced pSTAT3. As to the kind of experiment: IL-31-induced pSTAT3 in IFNγ-primed THP-1 cells. Conditions: Homo sapiens, JAK1/JAK2, read-out: IL-31 induced pSTAT3, cellular potency IC50. How it is done:
THP-1 cells were maintained in RPMI 1640 medium containing 10% FBS, 50 μM 2 mercaptoethanol, 50 U/mL penicillin, 50 µg/mL streptomycin and 2 mM L-glutamine. THP 1 cells were treated with IFNγ (20 ng/mL) for 18 hours. IFNγ primed THP-1 cells were resuspended in fresh RPMI 1640 medium, treated with compounds (0.0003 to 20 μM) for 60 minutes, followed by stimulation with IL-31 (1 μg/mL) for additional 10 minutes. Cells were then fixed by 2% paraformaldehyde and permeabilized by 90% methanol. Fixed and permeabilized cells were stained with AlexaFluor647™ labeled anti-pSTAT3 antibody (1 to 150 dilution).
After overnight incubation at 4° C., anti-pSTAT stained samples were transferred into 96-well polypropylene U-bottom plates and flow cytometric analysis was performed on a LSR Fortessa™ equipped with a HTS plate loader. For human whole blood samples, lymphocyte population was gated for pSTAT histogram analysis for IFNα, IL-10, IL-12, IL-15, IL-21, IL-23, and IL-27-treated samples; CD14^+ cells for IFNγ-treated samples; CD3^+ cells for IL-6 and TSLP-treated samples; all events (entire populations) for EPO-treated samples. Entire populations of keratinocytes and THP-1 cells were gated for the IL-4, IL-13, IL-22 and IL-31 assays. Background fluorescence was defined using unstimulated cells and a gate was placed at the foot of the peak to include ˜0.5% gated population. Histogram statistical analysis was performed using FACSDiva version 8.0. Relative fluorescence unit, which measures the level of pSTAT, was calculated by multiplying the percent positive population and its mean fluorescence. Inhibition curves and half maximal inhibitory concentration (IC50) values were determined using Prism™ software (Version 8) or the Activity Base data analysis software (ID Business Solutions).

The subject of another assay is IFNg induced pSTATI. As to the kind of experiment: IFNγ-induced pSTAT1 in human whole blood (CD14+ cells). The following applies: JAK1/JAK2, read-out: IFNg induced pSTATI, cellular potency IC50. As for the experimental part:
as §1, §2

The next assay deals with IL-21 induced pSTAT3. Briefly: IL-21-induced pSTAT3 in human whole blood (lymphocytes). The following applies: Lymphocyte, JAK1/JAK3, read-out: IL-21 induced pSTAT3, cellular potency IC50. How it is done: as §1, §2
For another assay, the system named is IL-15 induced pSTAT5. Briefly: IL-15-induced pSTAT5 in human whole blood (lymphocytes). Conditions: Lymphocyte, JAK1/JAK3, read-out: IL-15 induced pSTAT5, cellular potency IC50. As for the experimental part:
as §1, §2

The subject of another assay is EPO induced pSTAT5. Briefly: EPO-induced pSTAT5 in human whole blood (all events). Conditions: JAK2/JAK2, read-out: EPO induced pSTAT5, cellular potency IC50. As for the experimental part:
as §1, §2

Another assay concerns IL-13 induced pSTAT6. Briefly: IL-13-induced pSTAT6 in human keratinocytes. The following applies: Keratinocyte, JAK1/JAK2, read-out: IL-13 induced pSTAT6, cellular potency IC50. As for the experimental part: as §3, §2
Another assay has as its system TSLP induced pSTAT5. As to the kind of experiment: TSLP-induced pSTAT5 in human whole blood (CD3+ cells). Conditions: JAK1/JAK2, read-out: TSLP induced pSTAT5, cellular potency IC50. As for the experimental part:
as §3, §2

`CCCS(=O)(=O)N[C@H]1C[C@@H](N(C)c2ncnc3[nH]ccc23)C1` [Abrocitinib, N-((1S,3S)-3-(Methyl(7H-pyrrolo[2,3-d]pyrimidin-4-yl)amino)cyclo-butyl)propane-1-sulfonamide, reference compound]: the IC50 in the assay with IL-27 induced pSTAT3 is 228 nM; in the assay with IL-4 induced pSTAT6, 77 nM; with IL-10 induced pSTAT3, 3700 nM; with IL-6 induced pSTATI, 343 nM; in the assay with IL-23 induced pSTAT3, greater than 16500 nM; with IL-22 induced pSTAT3, 420 nM. The IC50 in the assay on IL-31 induced pSTAT3 was 40 nM; with IFNg induced pSTATI, 1690 nM; with IL-21 induced pSTAT3, 516 nM; with IL-15 induced pSTAT5 it was 537 nM; in the assay on EPO induced pSTAT5 it was 7180 nM; with IL-13 induced pSTAT6, 81.9 nM. Moreover, the IC50 in the assay on TSLP induced pSTAT5 is 1020 nM.
